We go through 15 compounds from patent US10821115B2, “Compounds that inhibit Mcl-1 protein” (priority 2017, dated 2020).

Assay [1] concerns the target recombinant human Mcl-1 (residues 171-327) / Bim interaction (Homo sapiens (Human), UniProt Q07820). Description: biochemical. Particulars: read-out: Mcl-1 HTRF IC50. The class given is binding. Background: In TR-FRET formats the signal depends on donor and acceptor labels being close together.
The test system of assay [2] is human multiple myeloma cell line, OPM-2. Kind of assay: Cell viability assay (OPM-2 10 FBS), CellTiter-Glo. The format is cell-based. A digest of the protocol:
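IC50 values come from 4-parameter logistic fits of luminescence signals reflecting cell viability. Treatment lasted 16 h at 37 °C in complete medium with 10% FBS, starting from 3000 cells/well.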
On the technique in general: ATP-based viability assays read luminescence as a measure of living cells.

Setting [3] is: 0.1 nM Mcl-1(171-327), 0.05 nM biotin-Bim (51-76).
Setting [4] is: Homo sapiens, OPM-2, 16 h, read-out: OPM-2 10% FBS IC50 IP, OPM-2 cells, 10% FBS, 16 h incubation.
Where [5] appears, read: TR-FRET, Mcl-1(171-327) / biotin-Bim (51-76).
[6] abbreviates: Homo sapiens, OPM-2, 16 h, read-out: OPM-2 10% FBS IC50 IP, OPM-2 cells, 10% FBS, 16 h, CellTiter-Glo.
[7] abbreviates: read-out: OPM-2 10% FBS IC50 IP, OPM-2 cells, 10% FBS, 16 h, CellTiter-Glo.
The mark [8] stands for this setting: read-out: OPM-2 10% FBS IC50 IP, OPM-2 cells, 10% FBS, 16 h incubation.

pIC50: −log10 of the molar value. Read-outs that look alike come from different tables or passages of the source.

Sequence of recombinant human Mcl-1 (residues 171-327) / Bim interaction (Q07820 171-327): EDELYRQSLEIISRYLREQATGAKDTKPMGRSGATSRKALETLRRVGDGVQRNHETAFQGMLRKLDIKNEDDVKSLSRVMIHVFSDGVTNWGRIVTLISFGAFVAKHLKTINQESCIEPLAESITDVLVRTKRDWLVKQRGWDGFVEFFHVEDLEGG

What is called pIC50 is −log10 of the IC50, conventionally taken in molar units. As to `CO[C@@]1(CN2CCC=C(F)C2)/C=C/C[C@H](C)[C@@H](C)S(=O)(=O)NC(=O)c2ccc3c(c2)N(C[C@@H]2CC[C@H]21)C[C@@]1(CCCc2cc(Cl)ccc21)CO3` [Example 68, (1S,3′R,6′R,7′S,8′E,11′S,12′R)-6-chloro-7′-((5-fluoro-3,6-dihydro-1(2H)-pyridinyl)methyl)-7′-methoxy-11′,12′-dimethyl-3,4-dihydro-2H,15′H-spiro[naphthalene-1,22′-[20]oxa[13]thia[1,14]diazatetracyclo [14.7.2.0~3,6~.0~19,24~]pentacosa[8,16,18,24]tetraen]-15′-one 13′,13′-dioxide], the pIC50 was 9.40 in assay [1] (setting [3]) and 5.82 in assay [2] (setting [4]).
For `CO[C@@]1(CC(=O)On2nnc3cccnc32)/C=C/C[C@H](C)[C@@H](C)S(=O)(=O)NC(=O)c2ccc3c(c2)N(C[C@@H]2CC[C@H]21)C[C@@]1(CCCc2cc(Cl)ccc21)CO3` [Example 100576, (1S,3′R,6′R,7′S,8′E,11′S,12′R)-6-chloro-7′-methoxy-11′,12′-dimethyl-7′-(2-oxo-2-(3H-[1,2,3]triazolo[4,5-b]pyridin-3-yloxy)ethyl)-3,4-dihydro-2H,15′H-spiro[naphthalene-1,22′-[20]oxa[13]thia[1,14]diazatetracyclo [14.7.2.0~3,6~.0~19,24~]pentacosa[8,16,18,24]tetraen]-15′-one 13′,13′-dioxide], the pIC50 in assay [1] (setting [5]) was 8.94; in assay [2] (setting [6]) it was 5.39.
Turning to `CO[C@]1(CN2CC(C)(N(C)C)C2)/C=C/C[C@H](C)[C@@H](C)S(=O)(=O)NC(=O)c2ccc3c(c2)N(C[C@@H]2CC[C@H]21)C[C@@]1(CCCc2cc(Cl)ccc21)CO3` [Example 60, (1S,3′R,6′R,7′R,8′E,11′S,12′R)-6-chloro-7′-((3-(dimethylamino)-3-methyl-1-azetidinyl)methyl)-7′-methoxy-11′,12′-dimethyl-3,4-dihydro-2H,15′H-spiro[naphthalene-1,22′-[20]oxa[13]thia[1,14]diazatetracyclo [14.7.2.0~3,6~.0~19,24~]pentacosa[8,16,18,24]tetraen]-15′-one 13′,13′-dioxide], the negative-log IC50 (pIC50) in assay [1] (setting [3]) is 9.54; in assay [2] (setting [4]) it was 6.89.
On the same counts, the results for `COC[C@@H]1[C@@H](C)C/C=C/[C@@](CN2CCN3CCOC[C@@H]3C2)(OC)[C@@H]2CC[C@H]2CN2C[C@@]3(CCCc4cc(Cl)ccc43)COc3ccc(cc32)C(=O)NS1(=O)=O` [Example 184, (1S,3′R,6′R,7′R,8′E,11′S,12′S)-6-chloro-7′-((9aS)-hexahydropyrazino[2,1-c][1,4]oxazin-8(1H)-ylmethyl)-7′-methoxy-12′-(methoxymethyl)-11′-methyl-3,4-dihydro-2H,15′H-spiro[naphthalene-1,22′-[20]oxa[13]thia[1,14]diazatetracyclo [14.7.2.0~3,6~.0~19,24~]pentacosa[8,16,18,24]tetraen]-15′-one 13′,13′-dioxide] are 10.17 and 7.77.
As to `C=C(C)[C@@H](O)C[C@]1(OC)/C=C/C[C@H](C)[C@@H](C)S(=O)(=O)NC(=O)c2ccc3c(c2)N(C[C@@H]2CC[C@H]21)C[C@@]1(CCCc2cc(Cl)ccc21)CO3` [Example 100470, (1S,3′R,6′R,7′S,8′E,11′S,12′R)-6-chloro-7′-((2S)-2-hydroxy-3-methyl-3-buten-1-yl)-7′-methoxy-11′,12′-dimethyl-3,4-dihydro-2H,15′H-spiro[naphthalene-1,22′-[20]oxa[13]thia[1,14]diazatetracyclo [14.7.2.0~3,6~.0~19,24~]pentacosa[8,16,18,24]tetraen]-15′-one 13′,13′-dioxide], the negative-log IC50 (pIC50) is 9.24 in assay [1] and 5.02 in assay [2] (setting [7]).
Consider `CO[C@@]1(CO)CCC[C@H](C)[C@@H](C)S(=O)(=O)NC(=O)c2ccc3c(c2)N(C[C@@H]2CC[C@H]21)C[C@@]1(CCCc2cc(Cl)ccc21)CO3` (stereo in doubt) [Example 100133, (1S,3′R,6′R,7′S,11′S,12′R)-6-chloro-7′-(hydroxymethyl)-7′-methoxy-11′,12′-dimethyl-3,4-dihydro-2H,15′H-spiro[naphthalene-1,22′-[20]oxa[13]thia[1,14]diazatetracyclo [14.7.2.0~3,6~.0~19,24~]pentacosa[16,18,24]rien]-15′-one 13′,13′-dioxide], for which the negative-log IC50 (pIC50) in assay [1] (setting [5]) is 9.05; in assay [2] (setting [7]) it was 6.01.
Take `CO[C@@]1(CN2CCN3CCOC[C@@H]3C2)/C=C/C[C@H](C)[C@@H](CC2CCC2)S(=O)(=O)NC(=O)c2ccc3c(c2)N(C[C@@H]2CC[C@H]21)C[C@@]1(CCCc2cc(Cl)ccc21)CO3` [Example 39, (1S,3′R,6′R,7′S,8′E,11′S,12′R)-6-chloro-12′-(cyclobutylmethyl)-7′-((9aS)-hexahydropyrazino[2,1-c][1,4]oxazin-8(1H)-ylmethyl)-7′-methoxy-11′-methyl-3,4-dihydro-2H,15′H-spiro[naphthalene-1,22′-[20]oxa[13]thia[1,14]diazatetracyclo [14.7.2.0~3,6~.0~19,24~]pentacosa[8,16,18,24]tetraen]-15′-one 13′,13′-dioxide]: the figures for the negative logarithm of the IC50 (pIC50) in assay [1] (setting [3]) and in assay [2] (setting [4]) were 9.42 and 6.41, respectively.
On the same counts, the results for `CO[C@@]1(CN2CCN(c3ccccn3)CC2)/C=C/C[C@H](C)[C@@H](C)S(=O)(=O)NC(=O)c2ccc3c(c2)N(C[C@@H]2CC[C@H]21)C[C@@]1(CCCc2cc(Cl)ccc21)CO3` [Example 252, (1S,3′R,6′R,7′S,8′E,11′S,12′R)-6-chloro-7′-methoxy-11′,12′-dimethyl-7′-((4-(2-pyridinyl)-1-piperazinyl)methyl)-3,4-dihydro-2H,15′H-spiro[naphthalene-1,22′-[20]oxa[13]thia[1,14]diazatetracyclo [14.7.2.0~3,6~.0~19,24~]pentacosa[8,16,18,24]tetraen]-15′-one 13′,13′-dioxide] are 8.86 and 5.74.
With `CO[C@@]1([C@H](C)O)CCC[C@H](C)[C@@H](C)S(=O)(=O)NC(=O)c2ccc3c(c2)N(C[C@@H]2CC[C@H]21)C[C@@]1(CCCc2cc(Cl)ccc21)CO3` (single isomer, unassigned) [Example 100482], the negative-log IC50 (pIC50) in assay [1] (setting [5]) was 9.74; in assay [2] (setting [6]), 6.98.
Turning to `C[C@@H]1[C@@H](C)CCC[C@@](O)(CCN2CC(F)(F)C2)[C@@H]2CC[C@H]2CN2C[C@@]3(CCCc4cc(Cl)ccc43)COc3ccc(cc32)C(=O)NS1(=O)=O` [Example 100094, (1S,3′R,6′R,7′R,11′S,12′R)-6-chloro-7′-(2-(3,3-difluoro-1-azetidinyl)ethyl)-7′-hydroxy-11′,12′-dimethyl-3,4-dihydro-2H,15′H-spiro[naphthalene-1,22′-[20]oxa[13]thia[1,14]diazatetracyclo [14.7.2.0~3,6~.0~19,24~]pentacosa[16,18,24]trien]-15′-one 13′,13′-dioxide], the negative-log IC50 (pIC50) in assay [1] (setting [5]) is 8.42; in assay [2] (setting [7]), 5.36.
In the case of `CO[C@]1(CN2CCN3CCN(S(C)(=O)=O)C[C@@H]3C2)/C=C/C[C@H](C)[C@@H](C)S(=O)(=O)NC(=O)c2ccc3c(c2)N(C[C@@H]2CC[C@H]21)C[C@@]1(CCCc2cc(Cl)ccc21)CO3` (single isomer, unassigned) [Example 237], the pIC50 is 9.89 in assay [1] (setting [3]) and 7.19 in assay [2] (setting [8]).
With `CO[C@@]1(CCN2CCCC2)/C=C/C[C@H](C)[C@@H](C)S(=O)(=O)NC(=O)c2ccc3c(c2)N(C[C@@H]2CC[C@H]21)C[C@@]1(CCCc2cc(Cl)ccc21)CO3` [Example 100412, (1S,3′R,6′R,7′S,8′E,11′S,12′R)-6-chloro-7′-methoxy-11′,12′-dimethyl-7′-(2-(1-pyrrolidinyl)ethyl)-3,4-dihydro-2H,15′H-spiro[naphthalene-1,22′-[20]oxa[13]thia[1,14]diazatetracyclo [14.7.2.0~3,6~.0~19,24~]pentacosa[8,16,18,24]tetraen]-15′-one 13′,13′-dioxide], the pIC50 in assay [1] (setting [5]) was 10.01; in assay [2] (setting [6]) it was 6.60.
For `C[C@@H]1[C@@H](C)C/C=C/[C@@](O)(c2nccn2C)[C@@H]2CC[C@H]2CN2C[C@@]3(CCCc4cc(Cl)ccc43)COc3ccc(cc32)C(=O)NS1(=O)=O` [Example 100199, (1S,3′R,6′R,7′S,8′E,11′S,12′R)-6-chloro-7′-hydroxy-11′,12′-dimethyl-7′-(1-methyl-1H-imidazol-2-yl)-3,4-dihydro-2H,15′H-spiro[naphthalene-1,22′-[20]oxa[13]thia[1,14]diazatetracyclo [14.7.2.0~3,6~.0~19,24~]pentacosa[8,16,18,24]tetraen]-15′-one 13′,13′-dioxide], in that order: 9.78 and 6.83.
Take `COCC(COC)N1CCN(C[C@]2(OC)/C=C/C[C@H](C)[C@@H](COC)S(=O)(=O)NC(=O)c3ccc4c(c3)N(C[C@@H]3CC[C@H]32)C[C@@]2(CCCc3cc(Cl)ccc32)CO4)CC1` [Example 172, (1S,3′R,6′R,7′S,8′E,11′S,12′S)-6-chloro-7′-methoxy-7′-((4-(2-methoxy-1-(methoxymethyl)ethyl)-1-piperazinyl)methyl)-12′-(methoxymethyl)-11′-methyl-3,4-dihydro-2H,15′H-spiro[naphthalene-1,22′-[20]oxa[13]thia[1,14]diazatetracyclo [14.7.2.0~3,6~.0~19,24~]pentacosa[8,16,18,24]tetraen]-15′-one 13′,13′-dioxide]: the negative-log IC50 (pIC50) was 9.86 in assay [1] (setting [3]) and 7.26 in assay [2] (setting [4]).
Consider `CO[C@@]1(CN2CCN3CCS(=O)(=O)C[C@@H]3C2)/C=C/C[C@H](C)[C@@H](C)S(=O)(=O)NC(=O)c2ccc3c(c2)N(C[C@@H]2CC[C@H]21)C[C@@]1(CCCc2cc(Cl)ccc21)CO3` (single isomer, unassigned) [Example 232], for which the negative logarithm of the IC50 (pIC50) in assay [1] (setting [3]) is 9.85; in assay [2] (setting [8]), 6.70.
